Mutagenic call data for four compounds are collected here from PubChem BioAssay AID1259407 (Chemical Carcinogenesis Research Information System (CCRIS), 2018).

For the data set, the system named is CCRIS mutagenicity, Ames/micronucleus/aberration tests. The data set can be described thus: CCRIS mutagenicity studies.
Where [1] appears, read: Test System: AMES SALMONELLA TYPHIMURIUM, Strain/Indicator: TA98, Metabolic Activation: NONE, Method: STANDARD PLATE.
The mark [2] stands for this setting: Test System: AMES SALMONELLA TYPHIMURIUM, Strain/Indicator: TA100, Metabolic Activation: NONE, Method: STANDARD PLATE.
Setting [3] is: Test System: AMES SALMONELLA TYPHIMURIUM, Strain/Indicator: TA1535, Metabolic Activation: NONE, Method: STANDARD PLATE.
[4] abbreviates: Test System: AMES SALMONELLA TYPHIMURIUM, Strain/Indicator: TA1537, Metabolic Activation: NONE, Method: STANDARD PLATE.

The structures appear in SMILES notation. Calls of active or inactive are those of the source. No rule for the calls is given here.

Consider `CN(C)CCCNc1c2ccccc2nc2cccc([N+](=O)[O-])c12`, for which the mutagenic call was “active; positive” (Test System: AMES SALMONELLA TYPHIMURIUM, Strain/Indicator: TA98(1,8-DNP6), Metabolic Activation: NONE, Method: STANDARD PLATE); “active; positive” (Test System: AMES SALMONELLA TYPHIMURIUM, Strain/Indicator: TA98(1,8-DNP6), Metabolic Activation: RAT, LIVER, S-9, Method: STANDARD PLATE); “active; positive” (Test System: AMES SALMONELLA TYPHIMURIUM, Strain/Indicator: TA98(NR), Metabolic Activation: NONE, Method: STANDARD PLATE); “active; positive” (Test System: AMES SALMONELLA TYPHIMURIUM, Strain/Indicator: TA98(NR), Metabolic Activation: RAT, LIVER, S-9, Method: STANDARD PLATE); “active; positive” under setting [1]; “active; positive” (Test System: AMES SALMONELLA TYPHIMURIUM, Strain/Indicator: TA98, Metabolic Activation: RAT, LIVER, S-9, Method: STANDARD PLATE). Also, the mutagenic call is “active; positive” under setting [2]; “inactive; negative” under setting [3]; “active; positive” under setting [4]; “active; positive” (Test System: AMES SALMONELLA TYPHIMURIUM, Strain/Indicator: TA1537 PKM101, Metabolic Activation: NONE, Method: STANDARD PLATE); “active; positive” (Test System: AMES SALMONELLA TYPHIMURIUM, Strain/Indicator: TA1538, Metabolic Activation: NONE, Method: STANDARD PLATE); “active; positive” (Test System: CHINESE HAMSTER V-79, Strain/Indicator: V-79/6-THIOGUANINE, Metabolic Activation: NONE, Method: STANDARD PLATE). For the same compound, the mutagenic call reads like this: (Test System: CHINESE HAMSTER V-79, Strain/Indicator: V-79/OUABAIN, Metabolic Activation: NONE, Method: STANDARD PLATE) “active; positive”; (Test System: Escherichia coli, Strain/Indicator: CC107 (G6 to G7 frameshifts), Metabolic Activation: None, Method: Modified preincubation) “active; positive”; (Test System: Escherichia coli, Strain/Indicator: CC108 (G6 to G5 frameshifts), Metabolic Activation: None) “active; positive”; (Test System: Escherichia coli, Strain/Indicator: CC109 (CG5 to CG4 frameshifts), Metabolic Activation: None, Method: Modified preincubation) “active; positive”; (Test System: Escherichia coli, Strain/Indicator: CC111 (A7 to A6 frameshifts), Metabolic Activation: None, Method: Modified preincubation) “inactive; negative”.

Consider `COc1ccc2c(OC)c3ccoc3nc2c1OC`, for which the mutagenic call reads like this: (Test System: AMES SALMONELLA TYPHIMURIUM, Strain/Indicator: TA98, Metabolic Activation: RAT, LIVER, MICROSOMES, PHENOBARBITAL, Method: STANDARD PLATE) “active; positive”; (Test System: AMES SALMONELLA TYPHIMURIUM, Strain/Indicator: TA98, Metabolic Activation: RAT, LIVER, S-9, PHENOBARBITAL, Method: STANDARD PLATE) “active; positive”; (Test System: AMES SALMONELLA TYPHIMURIUM, Strain/Indicator: TA100, Metabolic Activation: RAT, LIVER, MICROSOMES, PHENOBARBITAL, Method: STANDARD PLATE) “active; positive”; (Test System: AMES SALMONELLA TYPHIMURIUM, Strain/Indicator: TA100, Metabolic Activation: RAT, LIVER, S-9, PHENOBARBITAL, Method: STANDARD PLATE) “active; positive”; (Test System: AMES SALMONELLA TYPHIMURIUM, Strain/Indicator: TA1535, Metabolic Activation: RAT, LIVER, MICROSOMES, PHENOBARBITAL, Method: STANDARD PLATE) “inactive; negative”; (Test System: AMES SALMONELLA TYPHIMURIUM, Strain/Indicator: TA1538, Metabolic Activation: RAT, LIVER, MICROSOMES, PHENOBARBITAL, Method: STANDARD PLATE) “inactive; negative”.

Consider `O=c1c2ccccc2[se]n1-c1ccccc1`, for which the mutagenic call reads like this: under setting [1], “inactive; negative”; (Test System: AMES SALMONELLA TYPHIMURIUM, Strain/Indicator: TA98, Metabolic Activation: RAT LIVER S-9, PHENOBARBITAL AND 5,6-BENZOFLAVONE, Method: STANDARD PLATE) “inactive; negative”; under setting [2], “inactive; negative”; (Test System: AMES SALMONELLA TYPHIMURIUM, Strain/Indicator: TA100, Metabolic Activation: RAT LIVER S-9, PHENOBARBITAL AND 5,6-BENZOFLAVONE, Method: STANDARD PLATE) “inactive; negative”; under setting [3], “inactive; negative”; (Test System: AMES SALMONELLA TYPHIMURIUM, Strain/Indicator: TA1535, Metabolic Activation: RAT LIVER S-9, PHENOBARBITAL AND 5,6-BENZOFLAVONE, Method: STANDARD PLATE) “inactive; negative”. For the same compound, the mutagenic call under setting [4] is “inactive; negative”; the mutagenic call (Test System: AMES SALMONELLA TYPHIMURIUM, Strain/Indicator: TA1537, Metabolic Activation: RAT LIVER S-9, PHENOBARBITAL AND 5,6-BENZOFLAVONE, Method: STANDARD PLATE) was “inactive; negative”; the mutagenic call (Test System: E.COLI, Strain/Indicator: WP2 UVRA, Metabolic Activation: NONE, Method: STANDARD PLATE) is “inactive; negative”; the mutagenic call (Test System: E.COLI, Strain/Indicator: WP2 UVRA, Metabolic Activation: RAT LIVER S-9, PHENOBARBITAL AND 5,6-BENZOFLAVONE, Method: STANDARD PLATE) is “inactive; negative”.

For `C1=Cc2c3ccc4ccccc4c3cc3cccc1c23`, the mutagenic call runs as follows: (Test System: AMES SALMONELLA TYPHIMURIUM, Strain/Indicator: TA98, Metabolic Activation: HUMAN, LIVER, MICROSOMES, Method: STANDARD PLATE) “active; positive”; under setting [1], “inactive; negative”; (Test System: AMES SALMONELLA TYPHIMURIUM, Strain/Indicator: TA98, Metabolic Activation: RAT, LIVER, HEPATOCYTES, Method: PREINCUBATION) “active; positive”; (Test System: AMES SALMONELLA TYPHIMURIUM, Strain/Indicator: TA98, Metabolic Activation: RAT, LIVER, MICROSOMES, AROCLOR 1254, Method: STANDARD PLATE) “active; positive”; (Test System: AMES SALMONELLA TYPHIMURIUM, Strain/Indicator: TA98, Metabolic Activation: RAT, LIVER, MICROSOMES, Method: STANDARD PLATE) “active; positive”; (Test System: AMES SALMONELLA TYPHIMURIUM, Strain/Indicator: TA98, Metabolic Activation: RAT, LIVER, S-9, AROCLOR 1254 (0.4, 0.8, 1.15 OR 1.5 MG/PLATE), Method: STANDARD PLATE) “active; positive”. For the same compound, the mutagenic call is “active; positive” (Test System: AMES SALMONELLA TYPHIMURIUM, Strain/Indicator: TA98, Metabolic Activation: RAT, LIVER, S-9, AROCLOR 1254, Method: STANDARD PLATE); “active; positive” (Test System: AMES SALMONELLA TYPHIMURIUM, Strain/Indicator: TA98, Metabolic Activation: RAT, LUNG, MICROSOMES, AROCLOR 1254, Method: STANDARD PLATE); “inactive; negative” (Test System: AMES SALMONELLA TYPHIMURIUM, Strain/Indicator: TA98, Metabolic Activation: RAT, LUNG, MICROSOMES, Method: STANDARD PLATE); “active; positive” (Test System: CHINESE HAMSTER OVARY, Strain/Indicator: V-79/6-THIOGUANINE, Metabolic Activation: RAT, LIVER, S-9, AROCLOR 1254, Method: FLASK ASSAY); “inactive; negative” (Test System: CHINESE HAMSTER OVARY, Strain/Indicator: V-79/6-THIOGUANINE, Metabolic Activation: SHE CELL MEDIATED, Method: FLASK ASSAY); “active; positive” (Test System: CHINESE HAMSTER V-79, Strain/Indicator: V-79/6-THIOGUANINE, Metabolic Activation: RAT, LIVER, S-9, AROCLOR 1254, Method: SUSPENSION/PLATE). Besides, the mutagenic call (Test System: UDS RAT HEPATOCYTES, Strain/Indicator: THY INCORP, Metabolic Activation: NONE, Method: LIQUID SCINTILLATION COUNTING) is “active; positive”.
